The record followed here is ChEMBL document CHEMBL3860051, “Phosphorothioate analogs of P1,P3-di(nucleosid-5'-yl) triphosphates: Synthesis, assignment of the absolute configuration at P-atoms and P-stereodependent recognition by Fhit hydrolase” (Bioorg Med Chem, 2016).

The target of data set [1] is T1, Bis(5'-adenosyl)-triphosphatase (Homo sapiens, UniProt P49789). In words: Stability of the compound assessed as human Fhit expressed in Escherichia coli BL21-mediated compound hydrolysis rate per microgram protein at 50 uM after 5 to 120 mins by RP-HPLC analysis. It is filed as ADME.
T1 sequence (P49789 whole entry): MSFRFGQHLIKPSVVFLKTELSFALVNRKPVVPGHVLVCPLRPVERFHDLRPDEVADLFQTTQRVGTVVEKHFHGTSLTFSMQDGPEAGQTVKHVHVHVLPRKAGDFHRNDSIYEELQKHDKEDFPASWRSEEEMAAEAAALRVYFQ
For data set [2], the system named is snake venom phosphodiesterase. In words: Stability of the compound assessed as snake venom phosphodiesterase-mediated compound hydrolysis at 50 uM after 1 hr by RP-HPLC analysis. It is filed as ADME. The settings on record: serpentes, read-out: Drug degradation.
A short description of data set [3]: Stability of the compound assessed as snake venom phosphodiesterase-mediated initial rate of hydrolysis per microgram of protein at 50 uM after 1 hr by RP-HPLC analysis. It is filed as ADME. The settings on record: serpentes.
The nature of data set [4]: Stability of the compound assessed as snake venom phosphodiesterase-mediated initial rate of hydrolysis per microgram of protein at 50 uM by RP-HPLC analysis. Particulars: serpentes. Format: ADME.
Data set [5] deals with snake venom phosphodiesterase. Put plainly: Stability of the compound assessed as snake venom phosphodiesterase-mediated compound hydrolysis at 50 uM after 10 mins by RP-HPLC analysis. Format: ADME. The settings on record: serpentes, read-out: Drug degradation.
Data set [6] can be described thus: Stability of the compound assessed as snake venom phosphodiesterase-mediated initial rate of hydrolysis per microgram of protein at 50 uM after 10 mins by RP-HPLC analysis. The settings on record: serpentes. It is filed as ADME.
Data set [7] relates to snake venom phosphodiesterase. In words: Stability of the compound assessed as snake venom phosphodiesterase-mediated compound hydrolysis at 50 uM after 30 mins by RP-HPLC analysis. Particulars: serpentes, read-out: Drug degradation. Format: ADME.
Data set [8] in a line: Stability of the compound assessed as snake venom phosphodiesterase-mediated initial rate of hydrolysis per microgram of protein at 50 uM after 30 mins by RP-HPLC analysis. Particulars: serpentes, 0.5 h. It is filed as ADME.
Data set [9] can be described thus: (§1) Stability of the compound assessed as snake venom phosphodiesterase-mediated compound hydrolysis at 50 uM after 15 mins by RP-HPLC analysis. Format: ADME. The settings on record: serpentes, 0.25 h, 50 µM.
A short description of data set [10]: Stability of the compound assessed as snake venom phosphodiesterase-mediated initial rate of hydrolysis per microgram of protein at 50 uM after 15 mins by RP-HPLC analysis. It is filed as ADME. Particulars: serpentes, 0.25 h.
Data set [11] has as its system snake venom phosphodiesterase. The description is as §1. Format: ADME. Particulars: serpentes, snake venom phosphodiesterase; read-out: Drug degradation.
Data set [12] is described as follows: Retention time of compound by RP-HPLC analysis. Format: physicochemical.
In data set [13] the target is T1, Bis(5'-adenosyl)-triphosphatase. Put plainly: Stability of compound assessed as human Fhit expressed in Escherichia coli BL21-mediated compound initial rate of hydrolysis per microgram of protein at 50 to 200 uM after 5 to 120 mins by RP-HPLC analysis. It is filed as ADME.
Data set [14] relates to snake venom phosphodiesterase. Put plainly: Stability of the compound assessed as snake venom phosphodiesterase-mediated compound hydrolysis at 200 uM after 1 hr by RP-HPLC analysis. It is filed as ADME. Particulars: serpentes, read-out: Drug degradation.
Data set [15] can be described thus: Stability of the compound assessed as snake venom phosphodiesterase-mediated initial rate of hydrolysis per microgram of protein at 200 uM after 1 hr by RP-HPLC analysis. Format: ADME. The settings on record: serpentes.
The test system of data set [16] is snake venom phosphodiesterase. In words: Stability of compound assessed as snake venom phosphodiesterase-mediated compound hydrolysis at 50 uM by RP-HPLC analysis. The settings on record: serpentes, read-out: Drug degradation. It is filed as ADME.
Data set [17] can be described thus: Drug level treated with (S,S)-P1,P3-di(adenosin-5'-yl)P1,P3- bis-thio-triphosphate assessed as snake venom phosphodiesterase-mediated compound formation at 50 uM after 2 hrs by RP-HPLC analysis. It is filed as ADME. Particulars: serpentes.
Data set [18] in a line: Drug level treated with (R,S)-P1,P3-di(adenosin-5'-yl)P1,P3- bis-thio-triphosphate assessed as snake venom phosphodiesterase-mediated compound formation at 50 uM after 30 mins by RP-HPLC analysis. It is filed as ADME. The settings on record: serpentes, 0.5 h.
In data set [19] the test system is snake venom phosphodiesterase. Put plainly: Stability of the compound assessed as snake venom phosphodiesterase-mediated compound hydrolysis at 50 uM after 2 hrs by RP-HPLC analysis. It is filed as ADME. The settings on record: serpentes, read-out: Drug degradation.
Data set [20] can be described thus: Stability of the compound assessed as snake venom phosphodiesterase-mediated initial rate of hydrolysis per microgram of protein at 50 uM after 2 hrs by RP-HPLC analysis. It is filed as ADME. Particulars: serpentes.
Data set [21] is described as follows: Drug level treated with (R,R)-P1,P3-di(adenosin-5'-yl)P1,P3-bis-thio-triphosphate assessed as snake venom phosphodiesterase-mediated compound formation at 50 uM after 10 mins by RP-HPLC analysis. It is filed as ADME. The settings on record: serpentes.
The nature of data set [22]: Drug level treated with 1-O-[(guanosin-5'-yl)thiophosphyl]-2-S-[(guanosin-5'-yl)dithiophosphyl]-ethane assessed as snake venom phosphodiesterase-mediated compound formation at 50 uM after 15 mins by RP-HPLC analysis. Format: ADME. Particulars: serpentes, 0.25 h.

As for `Nc1nc2c(ncn2[C@@H]2O[C@H](COP(=O)(S)OP(=O)(O)OP(=O)(S)OC[C@H]3O[C@@H](n4cnc5c(=O)[nH]c(N)nc54)[C@H](O)[C@@H]3O)[C@@H](O)[C@H]2O)c(=O)[nH]1` (mixture of isomers), the Drug degradation in [1] is on record as 5.9 pmol/min; in [3] it was 0.0275 nmol/min. Also, in [2], the metabolised at 1 h, 50 µM turned out to be 50%.

Turning to `Nc1ncnc2c1ncn2[C@@H]1O[C@H](COP(=O)(O)OP(=O)(O)O)[C@@H](O)[C@H]1O` [ADENOSINE DIPHOSPHATE], the Stability entry in data set [4] is “Stable”.

Consider `Nc1ncnc2c1ncn2[C@@H]1O[C@H](CO[P@@](=O)(S)OP(=O)(O)O[P@](=O)(S)OC[C@H]2O[C@@H](n3cnc4c(N)ncnc43)[C@H](O)[C@@H]2O)[C@@H](O)[C@H]1O`, for which the Drug degradation in [1] is given as 5.8 pmol/min; in [6] it was 0.1349 nmol/min. Besides, the metabolised at 10 min, 50 µM in [5] was 88%.

For the molecule `Nc1ncnc2c1ncn2[C@@H]1O[C@H](CO[P@](=O)(S)OP(=O)(O)O[P@](=O)(S)OC[C@H]2O[C@@H](n3cnc4c(N)ncnc43)[C@H](O)[C@@H]2O)[C@@H](O)[C@H]1O`, the Drug degradation in [1] was 27.8 pmol/min; in data set [8] it was 0.0368 nmol/min. For the same molecule, the metabolised at 0.5 h, 50 µM in [7] was determined as 88%.

As for `Nc1nc2c(ncn2[C@@H]2O[C@H](CO[P@@](=O)(S)OP(=O)(O)O[P@](=O)(S)OC[C@H]3O[C@@H](n4cnc5c(=O)[nH]c(N)nc54)[C@H](O)[C@@H]3O)[C@@H](O)[C@H]2O)c(=O)[nH]1`, the Drug degradation was 0.7 pmol/min in [1] and 0.1212 nmol/min in data set [3]. Also, the metabolised at 1 h, 50 µM in [2] came out at 95%.

`Nc1nc2c(ncn2[C@@H]2O[C@H](COP(=O)(S)OCCSP(=O)(S)OC[C@H]3O[C@@H](n4cnc5c(=O)[nH]c(N)nc54)[C@H](O)[C@@H]3O)[C@@H](O)[C@H]2O)c(=O)[nH]1` (stereo in doubt; 9B): the Drug degradation was 2 pmol/min in [1], 56% in [9] and 0.5539 nmol/min in data set [10].

Consider `Nc1nc2c(ncn2[C@@H]2O[C@H](COP(=O)(S)OCCSP(=O)(S)OC[C@H]3O[C@@H](n4cnc5c(=O)[nH]c(N)nc54)[C@H](O)[C@@H]3O)[C@@H](O)[C@H]2O)c(=O)[nH]1` (stereo in doubt; 9A), for which the figures for the Drug degradation in data set [1] and in [10] were 3.9 pmol/min and 0.6944 nmol/min, respectively. Also, in data set [11], the metabolised at 0.25 h, 50 µM came to 70%.

In the case of `Nc1nc2c(ncn2[C@@H]2O[C@H](CO[P@](=O)(S)OP(=O)(O)O)[C@@H](O)[C@H]2O)c(=O)[nH]1`, the Retention_time in data set [12] was found to be 14.9 min.

Consider `NC(=O)c1ncn([C@@H]2O[C@H](CO[P@](=O)(S)OP(=O)(O)O[P@@](=O)(S)OC[C@H]3O[C@@H](n4cnc(C(N)=O)n4)[C@H](O)[C@@H]3O)[C@@H](O)[C@H]2O)n1`, for which the Stability result in [13] is “Stable”. In addition, the metabolised at 1 h, 200 µM in [14] came out at 10%. The Drug degradation in data set [15] amounted to 0.0023 nmol/min.

For the molecule `Nc1ncnc2c1ncn2[C@@H]1O[C@H](CO[P@](=O)(S)OP(=O)(O)O)[C@@H](O)[C@H]1O`, the Drug degradation in data set [4] was determined as 1.1 ×10⁻³ nmol/min. The metabolised at 50 µM in [16] turned out to be 10%. Further, the Drug metabolism result in data set [17] and in data set [18] was “Metabolite_Detected” throughout. In data set [12], this molecule came in with a Retention_time of 16.8 min.

`NC(=O)c1ncn([C@@H]2O[C@H](CO[P@@](=O)(S)OP(=O)(O)O)[C@@H](O)[C@H]2O)n1` gave a Retention_time in [12] of 11.8 min.

As for `Nc1ncnc2c1ncn2[C@@H]1O[C@H](CO[P@](=O)(S)OP(=O)(O)O[P@@](=O)(S)OC[C@H]2O[C@@H](n3cnc4c(N)ncnc43)[C@H](O)[C@@H]2O)[C@@H](O)[C@H]1O`, the Drug degradation is given as 5.7 pmol/min in data set [1] and 0.0012 nmol/min in data set [20]. The metabolised at 2 h, 50 µM in data set [19] came out at 52%.

Consider `NC(=O)c1ncn([C@@H]2O[C@H](CO[P@](=O)(S)OP(=O)(O)O)[C@@H](O)[C@H]2O)n1`, for which the Retention_time in data set [12] is recorded as 10.9 min.

For `Nc1ncnc2c1ncn2[C@@H]1O[C@H](COP(=O)(O)OP(=O)(O)OP(=O)(O)OC[C@H]2O[C@@H](n3cnc4c(N)ncnc43)[C@H](O)[C@@H]2O)[C@@H](O)[C@H]1O`, the Drug degradation in [1] came out at 9810 pmol/min.

Regarding `NC(=O)c1ncn([C@@H]2O[C@H](CO[P@](=O)(S)OP(=O)(O)O[P@](=O)(S)OC[C@H]3O[C@@H](n4cnc(C(N)=O)n4)[C@H](O)[C@@H]3O)[C@@H](O)[C@H]2O)n1`, in data set [13], the Stability entry is reported as “Stable”. Moreover, in data set [14], the metabolised at 1 h, 200 µM is 41%. Besides, the Drug degradation in [15] is recorded as 0.0253 nmol/min.

`NC(=O)c1ncn([C@@H]2O[C@H](COP(=O)(O)S)[C@@H](O)[C@H]2O)n1` (some centres undefined) yielded a Retention_time in data set [12] of 10.6 min.

For the molecule `Nc1ncnc2c1ncn2[C@@H]1O[C@H](CO[P@@](=O)(S)OP(=O)(O)O)[C@@H](O)[C@H]1O`, the Drug degradation in data set [4] was found to be 2.9 ×10⁻³ nmol/min. The metabolised at 50 µM in data set [16] is 10%. The Drug metabolism result in data set [21] is recorded as “Metabolite_Detected”. In [12], this molecule showed a Retention_time of 18.9 min.

`Nc1ncnc2c1ncn2[C@@H]1O[C@H](COP(O)(O)=S)[C@@H](O)[C@H]1O` yielded a Retention_time in data set [12] of 13.8 min.

Regarding `Nc1nc2c(ncn2[C@@H]2O[C@H](COP(O)(O)=S)[C@@H](O)[C@H]2O)c(=O)[nH]1`, in data set [22], the Drug metabolism result is “Metabolite_Detected”. The same molecule returned a Retention_time in data set [12] of 11.1 min.

Molecule `Nc1nc2c(ncn2[C@@H]2O[C@H](CO[P@@](=O)(S)OP(=O)(O)O)[C@@H](O)[C@H]2O)c(=O)[nH]1` displayed a Retention_time in data set [12] of 16.9 min.

Take `NC(=O)c1ncn([C@@H]2O[C@H](CO[P@@](=O)(S)OP(=O)(O)O[P@](=O)(S)OC[C@H]3O[C@@H](n4cnc(C(N)=O)n4)[C@H](O)[C@@H]3O)[C@@H](O)[C@H]2O)n1`: the Stability entry in data set [13] is reported as “Stable”. Further, the metabolised at 1 h, 200 µM in data set [14] was 80%. Further, the Drug degradation in data set [15] was determined as 0.0538 nmol/min.
